Patent US10835500B2, “Medicament for accelerated wound healing” (Symrise AG, priority 2014, dated 2020)

Biological target: T1, OR2AT4 (human olfactory receptor, endogenously expressed in HaCaT cells) (Homo sapiens, UniProt A6NND4)
T1 construct: OR2AT4, endogenous, HaCaT cells, calcium; endogenous in cells; host or cells: HaCaT cells
T1 sequence (A6NND4 1-320): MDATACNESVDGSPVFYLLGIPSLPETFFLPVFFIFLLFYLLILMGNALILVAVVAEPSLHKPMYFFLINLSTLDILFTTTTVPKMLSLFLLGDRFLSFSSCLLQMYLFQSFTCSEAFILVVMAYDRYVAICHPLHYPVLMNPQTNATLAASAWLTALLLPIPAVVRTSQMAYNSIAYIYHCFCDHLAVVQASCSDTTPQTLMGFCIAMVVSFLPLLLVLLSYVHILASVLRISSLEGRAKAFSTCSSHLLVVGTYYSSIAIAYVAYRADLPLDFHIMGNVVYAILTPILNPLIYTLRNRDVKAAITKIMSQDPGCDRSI
Assay: Calcium imaging, dose-dependent activation of HaCaT cells by Sandalore, fourth application (FIG. 9D)
Assay type: cell-based
Conditions: HaCaT keratinocytes, endogenous OR2AT4, intracellular calcium signal amplitude, 0.0125-10 mM
Source text: A method established at the Department of Cell Physiology of Ruhr University Bochum for deorphanization studies is calcium imaging, in which activation of an OR by an odorant is visualized by a change in the intracellular calcium concentration of transfected cells using a fluorescent dye [cf. Wetzel et al. in: J. Neurosci. 19, pp. 7426-7433 (1999); Spehr et al. in: Science 299, pp. 2054-2058 (2003); Neuhaus et al. in: J. Biol. Chem. 284, pp. 16218-16225 (2009)]. In this method, the Hana3A cells are briefly (20 s) stimulated with an odorant and selected for odorant screenings of high concentrations (up to 1 mM) in order to confirm activation of ORs weakly expressed in Hana3A cells.
For detection of OR2AT4 at the transcript level, RNA of various skin cell types and skin biopsy specimens was isolated, and RT-PCR was carried out. Transcripts of OR2AT4 were detected in human primary keratinocytes of various differentiation stages, HaCaT cells, and human skin biopsy specimens (full thickness skin) (FIG. 6). […] In contrast, no expression of the receptor was detected in adipocytes or fibroblasts (FIG. 6, center). […]
Effect of the OR2AT4 ligand Sandalore® on intracellular calcium concentration of cultivated keratinocytes. […] Right: Quantitative evaluation of calcium signals in 4-time application of Sandalore® (500 μM). […]

`CC1=CCC(CCC(C)C(C)O)C1(C)C` (stereo not shown) [Sandalore] was tested, and the EC50 was 110 µM.
